From PubChem BioAssay AID179 (DTP/NCI, 2004)
Several values for one entry are separate records, joined by “and”; a condition that tells them apart may be missing. Equal values may be shown once. Activity calls are given as the source filed them.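 Rule for the calls: active = compounds giving half or more protection of infected cells from virus-caused growth loss, again on retest; inactive = the rest.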 Where a SMILES comes first, the peptide text is derived from it. The star is where a group is joined. Boc = CC(C)(C)OC(=O)*

Tested on: CEM cells HIV-1 protection, formazan growth assay
Experiment: NCI AIDS Antiviral Assay
Conditions: for IC50: measured here: growth of uninfected CEM cells
In short: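 Category rules: moderately active means at least 50% protection on retest, and confirmed active means 100% protection reproducibly. The underlying data came from a formazan growth assay in HIV-1-infected CEM cells.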

| SMILES | EC50 | IC50 | outcome |
| --- | --- | --- | --- |
| COc1ccc2nc3c([N+](=O)[O-])ccc(NCCN(C)C)c3c(NCCN(C)C)c2c1 | > 200 µM | 1.07 µM |  |
| O=C1/C(=C\c2cccc(Oc3ccccc3)c2)S(=O)(=O)C(c2ccccc2)N1Cc1ccccc1 (centres undefined) | > 20 µM | > 20 µM |  |
| O=C(O)CCC(=O)NCCNC(=O)CC(=O)O | > 1000 µM | > 1000 µM |  |
| CC(C)CCC[C@@H](C)C1CCC2[C@@H]3CCC4CC(=C(c5cc(Cl)c(O)c(C(=O)O)c5)c5cc(Cl)c(O)c(C(=O)O)c5)CC[C@]4(C)C3CC[C@@]21C (some centres undefined) | 47.9 µM | 148 µM |  |
| O=C1c2ccccc2C(=O)C1(Cl)C1(Cl)C(=O)c2ccccc2C1=O |  |  | inactive |
| CCC(C)C(NC(=O)C1CCCN1C(=O)C(Cc1ccc(O)cc1)NC(=O)C(CC(N)=O)NC(=O)C(CCC(N)=O)NC(=O)C(CO)NC(=O)C(N)C(C)C)C(=O)NC(CC(C)C)C(=O)NC(CCC(N)=O)C(N)=O (centres undefined) (H-VSQNYPILQ-NH2; configuration not given here) | > 58.9 µM | > 58.9 µM |  |
| Cc1cn(C2CC(N=[N+]=[N-])C(COC(=O)CCCCCCCCCCOc3ccc(I)cc3)O2)c(=O)[nH]c1=O (centres undefined) | 0.117 µM | 17.8 µM |  |
| CN(C)/C=C/C(=O)c1cccc(C(=O)/C=C/N(C)C)n1 | > 19.1 µM | > 19.1 µM |  |
| COc1cc2c(cc1O)C1C(O2)c2ccc(OCc3ccccc3)cc2OC1(C)C (centres undefined) | > 200 µM | 15.1 µM |  |
| CNC(=O)CNC(=O)C(NC(=O)CNC(=O)C1CCCN1C(=O)C(C)NC(=O)C(NC(=O)OC(C)(C)C)C(C)C)C(C)C (centres undefined) (Boc-VAPGVG-NHMe; configuration not given here) | > 200 µM | > 200 µM |  |
| NC(=O)OCC(COc1ccc(Cl)cc1)OC(=O)c1ccccc1Cl (centres undefined) | > 93.3 µM | 70.8 µM |  |
| COc1ccc(NC(=O)C(=O)c2c(O)c3ccc(O)cc3oc2=O)c([N+](=O)[O-])c1 | > 447 µM | 229 µM |  |
| CSc1n[n+]2c(s1)SCCC2 | > 759 µM | 58.9 µM |  |
| COc1cc(/C=C2/SC(c3ccccc3)N(c3cc(Cl)ccc3Cl)C2=O)cc(OC)c1OC (centres undefined) | > 200 µM | 70.8 µM |  |
| OCC1OC(n2nc(-c3ccccc3)nc2-c2cnccn2)C(O)C(O)C1O (centres undefined) | > 200 µM | > 200 µM |  |
| CCCC(=O)Sc1ccccc1C(=O)Nc1ccc(S(=O)(=O)NC(C)=O)cc1 | 28.2 µM | 112 µM |  |
| O=C(O)c1ccccc1-c1c2cc(Br)c(=O)c(Br)c-2oc2c(Br)c(O)c(Br)cc12 | > 200 µM | 21.9 µM and 35.5 µM |  |
| O=C1O[C@@H](c2ccccc2)C[C@H]1CN1CCOCC1 |  |  | inactive |
| Cn1cc(NC(=O)c2cc(NC(=O)CCCCCCCCC(=O)Nc3cc(C(=O)Nc4cc(C(=O)NCCC(N)N)n(C)c4)n(C)c3)cn2C)cc1C(=O)NCCC(=N)N | > 28.8 µM | 12.6 µM |  |
| C1N2CN3CN1CN(C2)C3 | > 200 µM | 151 µM |  |
| O=C1NC2C(=CC(O)C(O)C2O)c2cc3c(cc21)OCO3 (centres undefined) | > 8.51 µM | 0.174 µM |  |
| CC(C)OP(=O)(OC(C)C)C(Nc1cccc(C(F)(F)F)c1)c1ccccc1 (centres undefined) | > 200 µM | 33.9 µM |  |
| O=C1O[C@H]2[C@@H](I)[C@H]3C[C@H]2[C@H]1[C@H]3c1ccccc1 | > 200 µM | > 200 µM |  |
| CCCCCC(/C=N/NC(N)=S)C(O)(C(F)(F)F)C(F)(F)F (centres undefined) | > 200 µM | 30.2 µM |  |
| Cc1cccc(C)c1NC(=S)N/C=C(\C#N)C(N)=O | > 200 µM | > 200 µM |  |
| O=C(NNC(=S)NC1CCCCC1)c1csc(NC(=S)NC2CCCCC2)n1 | > 20 µM | 1.86 µM |  |

| SMILES | EC50 | IC50 | outcome |
| --- | --- | --- | --- |
| COC1CC(O[C@H]2CC[C@@]3(C)[C@H](CC[C@@H]4[C@@H]3CC[C@]3(C)[C@@H](C5=CC(=O)OC5)[C@@H](OC(C)=O)C[C@]43O)C2)OC(C)C1O (some centres undefined) | > 0.2 µM | 0.0102 µM |  |
| C[C@H](NC(=O)c1ccccc1SC(=O)CCCC[n+]1ccccc1)C(N)=O | 0.933 µM | > 100 µM |  |
| COc1ccc(C(C)(O)c2cc3ccccc3n2S(=O)(=O)c2ccccc2)cc1 (centres undefined) | > 200 µM | 16.2 µM |  |
| Cc1cc(O)c(/C=N/C(=O)NN)c(=O)o1 | > 200 µM | > 200 µM |  |
| CCOP(=O)(OCC)/C(C#N)=C/c1cccs1 | 77.6 µM | 724 µM |  |
| O=C(N/N=C\c1ccncc1)c1ccncc1 | > 200 µM | > 200 µM |  |
| CC1(C)C=[N+]([O-])C(C)(C)N1O | > 200 µM | > 200 µM |  |
| CC(C)(N=NC(C)(C)C(=O)NCCO)C(=O)NCCO | > 200 µM | > 200 µM |  |
| CC(C)=CCNc1nc(Cl)nc2nc[nH]c12 | > 200 µM | 57.5 µM |  |
| NC1=CN2c3ccccc3N(CC(=O)O)C2C=C1 (centres undefined) | > 200 µM | > 200 µM |  |
| Oc1ccc2ccccc2c1NCn1nc(CCCCCCCCc2nn(CNc3c(O)ccc4ccccc34)c(=S)o2)oc1=S | > 200 µM | 37.2 µM |  |
| COc1ccc(CC(=O)c2ccc(O)cc2O)cc1 | > 200 µM | 81.3 µM |  |
| CCOC(=O)c1ccc(N=Nc2ccc(N(CCC#N)CCC#N)cc2C)cc1 | > 9.77 µM | > 9.77 µM |  |
| C=C1C(=O)C23OC2C1CCC(=O)C1(C)CC[C@H](OC(C)=O)C(C)(C)[C@H]1CC3O (some centres undefined) | > 200 µM | 1.2 µM |  |
| CN(C)CCN1C(=O)C2(C)C3CCC(O3)C2(C)C1=O (centres undefined) | 141 µM | 170 µM |  |
| Cc1cc(N=Nc2c(N)c(C)cc(N=Nc3ccc(C(N)=O)cc3)c2N)ccc1N=Nc1cc(C(=O)O)c(O)c(S(=O)(=O)O)c1 | 8.91 µM | > 200 µM |  |
| CCCCCC(=O)N1SC(NC(=O)OC)=Nc2ccccc21 | > 155 µM | 8.32 µM |  |
| COC(=O)c1cc(Cc2cc(C(c3cc(Cc4cc(Cl)c(O)c(C(=O)OC)c4)c(O)c(C(=O)OC)c3)C(Cl)(Cl)Cl)cc(C(=O)OC)c2O)cc(Cl)c1O | > 200 µM | > 200 µM |  |
| CC(=O)Oc1cc2c(cc1OC(C)=O)[C@H]1CC[C@]3(C)[C@@H](OC(C)=O)CC[C@H]3[C@@H]1CC2 | > 200 µM | 10 µM |  |
| O=C(CC(=O)N1N=C(N(c2ccccc2)c2ccccc2)CC1c1ccccc1)Nc1ccc(Cl)cc1 (centres undefined) |  |  | inactive |
| COC(=O)/C=c1\sc2n(c1=O)CCCCN=2 | > 417 µM | 240 µM |  |
| CSc1nnc(N(C(C)C)C(C)C)c2nc[nH]c12 | > 200 µM | > 200 µM |  |
| CC(C)(C)c1ccccc1N1C(=O)c2ccc3c4c(ccc(c24)C1=O)N(c1ccccc1C(C)(C)C)C3=O | > 200 µM | > 200 µM |  |
| O=S1(=O)CC#CC[C@@H](CO)[C@@H](CO)CC#CC1 |  |  | inactive |
| CCCCCCCCCOC(=S)NCCCCC |  |  | inactive |
| Cc1cc2c(C(C)C)c(O)c(O)c(C=Nc3ccccc3O)c2c(O)c1-c1c(C)cc2c(C(C)C)c(O)c(O)c(C=Nc3ccccc3O)c2c1O | > 200 µM | 3.24 µM |  |

| SMILES | EC50 | IC50 | outcome |
| --- | --- | --- | --- |
| COc1cc(C(=O)O)c(-c2cc3c(cc2C=O)OCO3)c(OC)c1OC | > 692 µM | > 692 µM |  |
| COC(=O)CCC(=O)CC1CC(=O)C2CCCN12 (centres undefined) |  |  | inactive |
| COc1ccc(C(O)/C(=N\NC(N)=S)c2nc3ccc([N+](=O)[O-])cc3[nH]c2=O)cc1OC (centres undefined) | > 288 µM | > 288 µM |  |
| CC(C)=CCN1c2ccccc2NC(=O)CC1C (centres undefined) | 7.94 µM | 91.2 µM |  |
| COc1ccc(C2c3cc4c(cc3OC3(OC)COC(=O)C23)OCO4)c(OC)c1 (centres undefined) | > 100 µM | 4.68 µM |  |
| CC(=O)NC(CCCNC(=O)OCc1ccccc1)C(=O)NCc1ccccc1 (centres undefined) | > 170 µM | > 170 µM |  |
| CC[N+](CC)=c1cc2oc3cc(N(C)C)ccc3nc-2cc1C | > 200 µM | 16.2 µM |  |
| CCOC(=O)/C=C(/C=C\COC1CCCCO1)c1ccccc1 (centres undefined) | > 74.1 µM | 36.3 µM |  |
| CC(C)CCCC(C)[C@H]1CC[C@@H]2[C@H]3CC[C@H]4C[C@@H](CCC=C(c5cc(Cl)c(OCc6ccc([N+](=O)[O-])cc6)c(C(=O)OCc6ccc([N+](=O)[O-])cc6)c5)c5cc(Cl)c(OCc6ccc([N+](=O)[O-])cc6)c(C(=O)OCc6ccc([N+](=O)[O-])cc6)c5)CC[C@]4(C)[C@@H]3CC[C@]12C (some centres undefined) | 23.4 µM | 72.4 µM |  |
| CSc1nc2c(c(=O)[nH]1)N=C(c1ccc(Cl)cc1)CC(c1ccccc1)N2 (centres undefined) | > 200 µM | 33.1 µM |  |
| COc1cc(/C=C/c2ccc3ccccc3n2)cc(OC)c1OC | > 22.4 µM | 1.48 µM |  |
| CN(C)c1ccc(C2SCC(=O)N2c2ccc(Oc3ccc(Cl)cc3)c(Cl)c2)cc1 (centres undefined) | > 200 µM | 29.5 µM |  |
| CC(C)(CCCCC(C)(C)NC(=O)Nc1ccc(Cl)c(Cl)c1)NC(=O)Nc1ccc(Cl)c(Cl)c1 | > 200 µM | 8.91 µM |  |
| Cc1cc(N=Nc2ccc(C(=O)O)cc2)c(N)c(N=Nc2ccc(N=Nc3ccc(O)c(C(=O)O)c3)cc2)c1N | 38 µM | 195 µM |  |
| CC(=O)NNc1nc(C)c(C(=O)NNC(=O)C(=O)Nc2ccc([N+](=O)[O-])cc2[N+](=O)[O-])s1 | > 204 µM | 38 µM |  |
| CCOC(=O)CC(=O)CSc1c(-c2ccccc2)c(=O)n(-c2ccccc2)c(=S)n1-c1ccccc1 | > 200 µM | 72.4 µM |  |
| O=C(/C=C/c1c(O)c2ccccc2[nH]c1=O)CC(=O)C(=O)Nc1cccc(O)c1 | > 174 µM | > 174 µM |  |
| CC(C)CCN(CCC(C)C)CC(=O)Nc1ccc(S(=O)(=O)c2ccc(NC(=O)CN(CCC(C)C)CCC(C)C)cc2)cc1 | > 100 µM | 1.62 µM |  |
| N#Cc1ccccc1C(Cl)(Cl)c1cnccn1 | > 490 µM | 64.6 µM |  |
| COC(=O)C(Cc1ccc2c(c1)CCCC2)Cc1cc2c(cc1C(O)OC)CCC2 (centres undefined) | > 200 µM | 55 µM |  |
| N#CC1CCCCOCCOCCOCCOCCOCCCCCC1=O (centres undefined) |  |  | inactive |
| COC(=O)Cc1cc(=O)n2c3ccccc3n(C)c2c1C#N | > 24.5 µM | > 24.5 µM |  |
| O=C(CCN(C(=O)O)S(=O)(=O)c1ccc(NC(=O)c2ccccc2)cc1)NC1CCCCC1 | > 525 µM | > 525 µM |  |
| O=C1CC2(CCC(O)(c3ccco3)C(C(=O)c3ccco3)C2)C(=O)c2ccccc2N1 (centres undefined) | > 200 µM | > 200 µM |  |
| CN(C)c1cccc2c1C(=O)C=CC21CCc2ccc(N(C)C)c3c(N(C)C)ccc1c23 (centres undefined) | > 200 µM | 8.71 µM |  |
| Cc1cn(C2CC(N=[N+]=[N-])C(COC(=O)CCCCCCCCCCCF)O2)c(=O)[nH]c1=O (centres undefined) | 0.162 µM | 2 µM |  |
